Ki data for one compound are collected here from ChEMBL document CHEMBL1146695 (Bioorg Med Chem Lett, 2004).

The structures appear in SMILES notation.

Targets include Carbonic anhydrase 9 (Homo sapiens, UniProt Q16790); Carbonic anhydrase 2 (Homo sapiens, UniProt P00918); Carbonic anhydrase 1 (Homo sapiens, UniProt P00915).
The target of another assay is T1, Carbonic anhydrase 4 (Bos taurus, UniProt Q95323).
T1 sequence (Q95323 whole entry): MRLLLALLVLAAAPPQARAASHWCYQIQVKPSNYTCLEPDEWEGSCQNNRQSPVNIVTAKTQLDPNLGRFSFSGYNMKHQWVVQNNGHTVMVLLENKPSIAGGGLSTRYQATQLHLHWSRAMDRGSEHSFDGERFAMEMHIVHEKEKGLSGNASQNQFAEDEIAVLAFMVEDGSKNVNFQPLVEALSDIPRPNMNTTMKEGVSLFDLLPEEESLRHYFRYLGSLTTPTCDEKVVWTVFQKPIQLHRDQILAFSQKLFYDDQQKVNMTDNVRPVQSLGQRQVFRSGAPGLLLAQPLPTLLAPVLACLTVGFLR

Carbonic anhydrase 1, sequence (P00915 whole entry): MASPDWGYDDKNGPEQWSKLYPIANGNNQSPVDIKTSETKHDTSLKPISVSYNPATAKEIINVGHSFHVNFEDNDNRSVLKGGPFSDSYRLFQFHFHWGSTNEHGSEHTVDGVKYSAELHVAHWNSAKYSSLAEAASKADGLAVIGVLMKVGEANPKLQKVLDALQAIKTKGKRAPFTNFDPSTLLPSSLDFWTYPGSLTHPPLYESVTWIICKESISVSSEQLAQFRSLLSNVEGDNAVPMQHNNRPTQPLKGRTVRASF
Description for Carbonic anhydrase 1: Compound was evaluated for inhibition against human carbonic anhydrase I
Description for Carbonic anhydrase 2: Compound was evaluated for inhibition against human carbonic anhydrase II
Description for Carbonic anhydrase 4: Compound was evaluated for inhibition against bovine carbonic anhydrase IV
Description for Carbonic anhydrase 9: Compound was evaluated for inhibition against human carbonic anhydrase IX

Take `NS(=O)(=O)c1ccc(S(=O)(=O)Nc2cccc3[nH]cc(Cl)c23)cc1`: the Ki was found to be 24 nM on Carbonic anhydrase 9, 15 nM at Carbonic anhydrase 2, 65 nM at Carbonic anhydrase 4 and 31 nM at Carbonic anhydrase 1.
